Our source for the IC50 values is patent US20060264460A1 (Wyeth, priority 2005, published 2006).

What is called IC50 is the concentration that inhibits the measured activity by half.

The target of the experiment is T1, human Cot/Tpl2 kinase (Homo sapiens, UniProt P41279).
T1 construct: human Cot/Tpl2 kinase construct encoding residues 30-398; 6His (N); made in house; host or cells: Sf9 insect cells, baculovirus system (BD Biosciences)
T1 sequence (P41279 30-398): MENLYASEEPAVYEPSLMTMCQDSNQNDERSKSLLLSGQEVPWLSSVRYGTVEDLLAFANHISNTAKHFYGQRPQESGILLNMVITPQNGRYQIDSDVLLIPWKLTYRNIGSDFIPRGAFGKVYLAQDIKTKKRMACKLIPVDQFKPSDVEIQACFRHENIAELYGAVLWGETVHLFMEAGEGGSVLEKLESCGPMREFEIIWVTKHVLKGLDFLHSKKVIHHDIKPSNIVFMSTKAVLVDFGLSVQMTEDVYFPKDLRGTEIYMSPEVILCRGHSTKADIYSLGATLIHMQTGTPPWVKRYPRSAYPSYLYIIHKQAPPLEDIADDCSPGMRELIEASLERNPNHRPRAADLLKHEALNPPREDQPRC
Put plainly: Tpl2/Cot kinase assay: GST-MEK1 phosphorylation detected by ELISA (DELFIA Eu). It is filed as biochemical. The following applies: 0.4 nM Tpl2, 35 nM GST-MEK1, 50 uM ATP, 1 h at 30° C. The procedure, abridged: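 Substrate phosphorylation (GST-MEK1 Ser217/221) quantified by DELFIA europium ELISA, yielding IC50 values. Reaction: 1 h at 30° C, pH 7.2 MOPS buffer, 50 uM ATP, 35 nM GST-MEK1, 0.4 nM monomeric His-Tpl2 purified from Sf9 cells, compounds at 1% final DMSO; stopped with EDTA.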
(In general: ELISA stands for enzyme-linked immunosorbent assay.)
Compound `N#Cc1cnc2ccc(NCc3cccc(Oc4ccccc4)c3)cc2c1Nc1ccc(F)c(Cl)c1` [Example 150, 6-(3-phenoxybenzylamino)-4-(3-chloro-4-fluorophenylamino)quinoline-3-carbonitrile] came in with an IC50 of 6400 nM. This counts as single-digit micromolar.

Turning to `N#Cc1cnc2ccc(NCc3ccc(O)c(Cl)c3)cc2c1Nc1ccc(F)c(Cl)c1` [Example 151, 6-(3-chloro-4-hydroxybenzylamino)-4-(3-chloro-4-fluorophenylamino)quinoline-3-carbonitrile], the IC50 was found to be 610 nM.

`N#Cc1cnc2ccc(NCc3cccc(Cl)c3)cc2c1Nc1ccc(F)c(Cl)c1` [Example 152, 6-(3-chlorobenzylamino)-4-(3-chloro-4-fluorophenylamino)quinoline-3-carbonitrile]: half-maximal inhibition (IC50) was put at 1300 nM.

`N#Cc1cnc2c(Br)cc(NCc3nn[nH]c3-c3ccccc3C(F)(F)F)cc2c1Nc1ccc(F)c(Cl)c1` [Example 153, 8-bromo-4-[(3-chloro-4-fluorophenyl)amino]-6-[({5-[2-(trifluoromethyl)phenyl]-1H-1,2,3-triazol-4-yl}methyl)amino]quinoline-3-carbonitrile] yielded an IC50 of 220 nM.

For `CN(C)Cc1ccc2cc(CNc3ccc4ncc(C#N)c(Nc5ccc(F)c(Cl)c5)c4c3)[nH]c2c1` [Example 154, 4-(3-chloro-4-fluorophenylamino)-6-((6-((dimethylamino)methyl)-1H-indol-2-yl)methylamino)quinoline-3-carbonitrile], the midpoint of inhibition, the IC50, lay at 2500 nM.

With `CN(C)C(=O)c1ccc2cc(CNc3ccc4ncc(C#N)c(Nc5ccc(F)c(Cl)c5)c4c3)[nH]c2c1` [Example 155, 2-((4-(3-chloro-4-fluorophenylamino)-3-cyanoquinolin-6-ylamino)methyl)-N,N-dimethyl-1H-indole-6-carboxamide], the midpoint of inhibition, the IC50, lay at 1500 nM. Compared with the last compound, the IC50 is about 1.7-fold lower.

`CN(C)C(=O)c1ccc2cc(CNc3ccc4ncc(C#N)c(Nc5ccc(F)c(Cl)c5)c4c3)n(C)c2c1` [Example 156, 2-((4-(3-chloro-4-fluorophenylamino)-3-cyanoquinolin-6-ylamino)methyl)-N,N,1-trimethyl-1H-indole-6-carboxamide] displayed an IC50 of 420 nM.

Regarding `N#Cc1cnc2ccc(NCc3cc4ccccc4[nH]3)cc2c1Nc1ccc(F)c(Cl)c1` [Example 157, 6-((1H-indol-2-yl)methylamino)-4-(3-chloro-4-fluorophenylamino)quinoline-3-carbonitrile], half-maximal inhibition (IC50) required 8500 nM.

For `N#Cc1cnc2cc(OCCCN3CCOCC3)c(NCc3cnc[nH]3)cc2c1Nc1ccc(F)c(Cl)c1` [Example 159, 6-((1H-imidazol-5-yl)methylamino)-4-(3-chloro-4-fluorophenylamino)-7-(3-morpholinopropoxy)quinoline-3-carbonitrile], the IC50 was 9200 nM.

As for `N#Cc1cnc2cc(N3CCOCC3)c(NCc3cnc[nH]3)cc2c1Nc1ccc(F)c(Cl)c1` [Example 160, 6-((1H-imidazol-5-yl)methylamino)-4-(3-chloro-4-fluorophenylamino)-7-morpholinoquinoline-3-carbonitrile], the IC50 was > 40000 nM.

For the compound `CN1CCN(c2cc3ncc(C#N)c(Nc4ccc(F)c(Cl)c4)c3cc2NCc2cnc[nH]2)CC1` [Example 161, 6-((1H-imidazol-5-yl)methylamino)-4-(3-chloro-4-fluorophenylamino)-7-(4-methylpiperazin-1-yl)quinoline-3-carbonitrile], the half-maximal inhibitory concentration (IC50) is > 40000 nM.

For `CN(C)CCSc1cc2ncc(C#N)c(Nc3ccc(F)c(Cl)c3)c2cc1NCc1cnc[nH]1` [Example 163, 6-((1H-imidazol-5-yl)methylamino)-4-(3-chloro-4-fluorophenylamino)-7-(2-(dimethylamino)ethylthio)quinoline-3-carbonitrile], the IC50 amounted to 150 nM.

In the case of `CN(C)CCN1CCN(c2cc3ncc(C#N)c(Nc4ccc(F)c(Cl)c4)c3cc2NCc2cnc[nH]2)CC1` [Example 164, 6-((1H-imidazol-5-yl)methylamino)-4-(3-chloro-4-fluorophenylamino)-7-(4-(2-(dimethylamino)ethyl)piperazin-1-yl)quinoline-3-carbonitrile], the half-maximal inhibitory concentration (IC50) was > 40000 nM.
